Assay results reported in patent US20230133958A1, “COMPOUNDS USEFUL IN MODULATING EGFR AND PI3K” (Mekanistic Therapeutics LLC, priority 2021, published 2023).

Assays:
Type in all cases: cell-based
COLO 205 = assay: NCI COMPARE panel (SRB growth inhibition), COLO 205; details: Homo sapiens; Colon Cancer, COLO 205, 48 h
Description: (§1) The human tumor cell lines of the cancer screening panel are grown in RPMI 1640 medium containing 5% fetal bovine serum and 2 mM L-glutamine. For a typical screening experiment, cells are inoculated into 96 well microtiter plates in 100 µL at plating densities ranging from 5,000 to 40,000 cells/well depending on the doubling time of individual cell lines. After cell inoculation, the microtiter plates are incubated at 37° C., 5% CO2, 95% air and 100% relative humidity for 24 h prior to addition of experimental drugs.
(§2) After 24 h, two plates of each cell line are fixed in situ with TCA, to represent a measurement of the cell population for each cell line at the time of drug addition (Tz). Experimental drugs are solubilized in dimethyl sulfoxide at 400-fold the desired final maximum test concentration and stored frozen prior to use. […]
(§3) Following drug addition, the plates are incubated for an additional 48 h at 37° C., 5 % CO2, 95% air, and 100% relative humidity. […] Bound stain is subsequently solubilized with 10 mM trizma base, and the absorbance is read on an automated plate reader at a wavelength of 515 nm. […] Using the seven absorbance measurements [time zero, (Tz), control growth, (C), and test growth in the presence of drug at the five concentration levels (Ti)], the percentage growth is calculated at each of the drug concentrations levels. Percentage growth inhibition is calculated as: […]

SK-MEL-28 = assay: NCI COMPARE panel (SRB growth inhibition), SK-MEL-28; details: Homo sapiens; Melanoma, SK-MEL-28, 48 h
Description: as §1, §2, §3

LOX IMVI = assay: NCI COMPARE panel (SRB growth inhibition), LOX IMVI; details: Homo sapiens, Melanoma, 48 h
Description: as §1, §2, §3

BT-549 = assay: NCI COMPARE panel (SRB growth inhibition), BT-549; details: Homo sapiens; Breast Cancer, BT-549, 48 h
Description: as §1, §2, §3

CS(=O)(=O)Nc1cc(-c2ccc3ncnc(Nc4cccc(Cl)c4F)c3c2)cnc1Cl [Compound 6, N-[2-chloro-5-[4-(3-chloro-2-fluoro-anilino)quinazolin-6-yl]-3-pyridyl] methanesulfonamide]
GI50 (COLO 205): 125 to 250 nM | GI50 (SK-MEL-28): 75 to 125 nM | GI50 (LOX IMVI): 125 to 250 nM | GI50 (BT-549): 75 to 125 nM

CS(=O)(=O)Nc1cc(-c2ccc3ncc(C#N)c(Nc4cccc(Cl)c4F)c3c2)cnc1Cl [Compound 10, N-[2-chloro-5-[4-(3-chloro-2-fluoro-anilino)-3-cyano-6-quinolyl]-3-pyridyl]methanesulfonamide]
GI50 (COLO 205): 125 to 250 nM | GI50 (SK-MEL-28): 125 to 250 nM | GI50 (LOX IMVI): 75 to 125 nM | GI50 (BT-549): ≤ 75 nM
